From patent EP2221291B1, “CYCLOHEXENONE COMPOUNDS FROM ANTRODIA CAMPHORATA AND PHARMACEUTICAL COMPOSITIONS THEREOF USEFUL FOR TREATING AUTOIMMUNE DISEASES” (Golden Biotechnology Corporation, priority 2007, dated 2009) come the findings set out here.

Each structure is given as a SMILES string.

Experiment [1] deals with anti-dsDNA antinuclear antibodies in female NZB/WF1 SLE mice. The experiment is described as follows: Titers of anti-dsDNA antinuclear antibodies in plasma of SLE mouse model (Mouse Anti-dsDNA IgG ELISA). It counts as in vivo. Particulars: for titer of anti-dsDNA antinuclear antibodies decreased to: week 8, oral once per day (cyclohexenone compounds 50 mg/kg; prednisolone 1.25 mg/kg), reference of the percentage not stated. Here is the method: (§1) Female NZB/WF1 mice spontaneously develop human SLE-like syndromes, such as generation of antinuclear autoantibodies, proteinuria, and renal toxicity to cause death. The disease is more severe in female mice than in male mice; the morbidity of female mice is also higher than that of male mice. Therefore, female NZB/WF1 mice were used for screening anti-SLE drugs in this study.
(§2) Thirty female NZB/WF1 mice (purchased from Jackson Lab, USA) between 12-24 weeks of age were analyzed biweekly to determine proteinuria levels, monthly to assess the titers of antinuclear autoantibody (ANA). The increased titers of ANA and positive response implicated that female NZB/WF1 mice were going to develop SLE and were ready for grouping. At 22 weeks of age, the animals showing the abovementioned syndromes were randomly divided into 3 groups (10 mice per group, water was administered to negative control group, steroid was given to positive control group, and cyclohexenone compounds of Antrodia camphorata was administered to experiment group), and the start time for the experiment was set as week zero. In addition, ten B6 mice (purchased from National Laboratory Animal Center, Taiwan) without SLE syndrome were normal mice served as blank group. Table 1 Treatment of animal groups
The blank group in Table 1 was B6 mice of no SLE syndrome, which received no treatment and normal diet for natural growth. NZB/WF1 female mice that were able to express SLE syndromes were served in negative control and positive control groups. Mice in the former group received normal water; in the latter were orally medicated with 1.25 mg/kg of prednisolone, the SLE drug. Mice in the experiment group were orally medicated with 50 mg/kg of cyclohexenone compounds from Example 1. The mice were fed with the abovementioned substances once per day starting at 23 weeks of age, and this period of time was referred to as the first week of this experiment. […]
The titers of dsDNA antinuclear antibodies were determined in this study to assess the effects of cyclohexenone compounds from Antrodia camphorata on SLE mice. […]
On the technique in general: In an ELISA, binding on a coated surface is turned into a signal by an enzyme label.

The next experiment has as its system female NZB/WF1 SLE mice. The experiment is described as follows: Changes of proteinuria in SLE mouse model (Bio-Rad protein assay of urine). It counts as in vivo. Particulars: for proteinuria level: after 6 weeks of experiment, oral once per day (cyclohexenone compounds 50 mg/kg; prednisolone 1.25 mg/kg), negative control 89.16 vs. 246 mg/dl. The protocol: as §1, §2
The blank group in Table 1 was B6 mice of no SLE syndrome, which received no treatment and normal diet for natural growth. NZB/WF1 female mice that were able to express SLE syndromes were served in negative control and positive control groups. Mice in the former group received normal water; in the latter were orally medicated with 1.25 mg/kg of prednisolone, the SLE drug. Mice in the experiment group were orally medicated with 50 mg/kg of cyclohexenone compounds from Example 1. […]
SLE patients develop renal inflammation and damage, which cause leakage of protein from kidney into the fluid. […] Ten µl of urine was assayed with Bio-Rad Protein Assay Dye Reagent Concentrate (Bio-Rad Laboratories, USA) and read under […] with an ELISA analyzer to determine the protein concentration with a standard curve.

Turning to `C[C@]12C=CC(=O)C=C1CC[C@@H]1[C@@H]2[C@@H](O)C[C@@]2(C)[C@H]1CC[C@]2(O)C(=O)CO` [prednisolone, reference compound], the “titer of anti-dsDNA antinuclear antibodies decreased to” value in experiment [1] is recorded as “around 50%”. The same compound came in with a proteinuria level in the experiment with female NZB/WF1 SLE mice of 32.6 mg/dL.
As to `COC1=C(OC)C(O)C(CC=C(C)CCC=C(C)CCC=C(C)C)C(C)C1=O` (stereo not drawn) [4-hydroxy-2,3-dimethoxy-6-methyl-5(3,7,11-trimethyl-dodeca-2,6,10-trienyl)-cyclohex-2-enone], the “titers of anti-dsDNA antinuclear antibodies compared with negative group” value in experiment [1] (during 8 weeks of experiment, oral 50 mg/kg once per day) is reported as “significantly lower titers”. Also, in experiment [1], the “titer of anti-dsDNA antinuclear antibodies decreased to” value amounted to 34%. In the experiment with female NZB/WF1 SLE mice, the proteinuria level stood at 118.2 mg/dL. Also, the “increase in proteinuria level than that before experiment” value with female NZB/WF1 SLE mice (after 6 weeks, oral 50 mg/kg once per day, negative control 2.76-fold) came to 1.3 fold.
